PubChem BioAssay AID651653 (NMMLSC, 2012)
Active and inactive are the calls of the source.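 How the source made its calls: active means viability at the top tested dose under 50% of the solvent-only control; inactive means the rest.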

What was measured:
[1] = system: K562-ABCB6 viability, CellTiter-Glo luminescence, 18 h; assay: viability loss, K562-ABCB6 cells – cell-based, CellTiter-Glo luminescence, cherry picks 01-02, cytotoxicity control for ABCB6 inhibitor project, dose response (AID 651653)
[2] = as above; details: K562-ABCB6 viability, CellTiter-Glo luminescence, 18 h; at 100 µM (top of the series)

Work on Cc1cccc(CS(=O)(=O)c2ncc(Cl)c(C(=O)Nc3nnc(C(C)C)s3)n2)c1 yielded an EC50 [1] of 6.52 µM.
Work on Cc1cccc(CS(=O)(=O)c2ncc(Cl)c(C(=O)Nc3ccc(F)cc3)n2)c1 yielded an EC50 [1] of 1.52 µM.
In the case of CCOC(=O)c1ccc(NC(=O)c2nc(S(=O)(=O)Cc3ccccc3)ncc2Cl)cc1, the EC50 [1] is reported as 1.79 µM.
O=C(Nc1ccc(F)cc1)c1nc(S(=O)(=O)Cc2ccccc2)ncc1Cl gave an EC50 [1] of 1.54 µM.
Work on C[N+](C)(C)CC1CCCC(C[N+](C)(C)C)C1=O (stereo not given) yielded an EC50 [1] of 0.245 µM.
Compound COC(=O)c1ccc(NC(=O)c2nc(S(=O)(=O)Cc3cccc(C)c3)ncc2Cl)cc1 has an EC50 [1] of 0.688 µM.
In the case of CCCc1nnc(NC(=O)c2nc(S(=O)(=O)Cc3cccc(C)c3)ncc2Cl)s1, the viability [2] is reported as 65.4% (inactive).
With CCOc1ccccc1NC(=O)c1nc(S(=O)(=O)Cc2ccccc2)ncc1Cl the EC50 [1] was 11.8 µM.
Work on Cc1ccccc1CS(=O)(=O)c1ncc(Cl)c(C(=O)Nc2ccc(F)cc2)n1 yielded an EC50 [1] of 7.15 µM.
Compound Cc1nnc(NC(=O)c2nc(S(=O)(=O)Cc3ccccc3)ncc2Cl)s1 has an EC50 [1] of 0.811 µM.
Work on Cc1ccc(NC(=O)c2nc(S(=O)(=O)Cc3ccccc3C)ncc2Cl)cc1C yielded an EC50 [1] of 1.45 µM.
Compound Cc1cccc(C)c1NC(=O)c1nc(S(=O)(=O)Cc2ccccc2)ncc1Cl has an EC50 [1] of 2.11 µM.
With Cc1ccc(CS(=O)(=O)c2ncc(Cl)c(C(=O)Nc3nnc(C(C)C)s3)n2)cc1 the EC50 [1] was 3.93 µM.
For Cc1ccc(CS(=O)(=O)c2ncc(Cl)c(C(=O)Nc3ccc(OC(F)F)cc3)n2)cc1, the EC50 [1] was 3.54 µM.
For CC(=O)Nc1ccc(NC(=O)c2nc(S(=O)(=O)Cc3cccc(C)c3)ncc2Cl)cc1, the EC50 [1] was 1.92 µM.
CCOc1ccccc1NC(=O)c1nc(S(=O)(=O)Cc2cccc(C)c2)ncc1Cl gave an EC50 [1] of 1.43 µM.
In the case of CCN(CC)S(=O)(=O)c1cccc(-n2c(O)c(C=Nc3ccccc3C(=O)O)c3ccccc3c2=O)c1, the EC50 [1] is reported as 13.1 µM.
CC(=O)Nc1ccc(NC(=O)c2nc(S(=O)(=O)Cc3ccccc3)ncc2Cl)cc1 showed an EC50 [1] of 1.19 µM.
In the case of CCc1ccc(NC(=O)c2nc(S(=O)(=O)Cc3ccccc3)ncc2Cl)cc1, the EC50 [1] is reported as 1.62 µM.
Cc1ccc(NC(=O)c2nc(S(=O)(=O)Cc3ccccc3)ncc2Cl)cc1 showed an EC50 [1] of 1.8 µM.
